Test results reported in US20040005537A1, “Method of identifying toxic agents using differential gene expression” (priority 2000, published 2004).

System: rat heart tissue
Test: GENECALLING differential gene expression analysis after dosing of serotonin modulating agents
Assay type: in vivo, Sprague Dawley rats
Protocol: Control animals received sterile water or canola oil. The animals were sacrificed 24 hours following the last dose. Liver tissue was dissected from the animals, and total RNA was recovered from the dissected tissue. cDNA was prepared and the resulting samples were processed through using GENECALLING™ differential expression analysis as described in U.S. Pat. No. 5,871,697 and in Shimkets et al., Nature Biotechnology 17:798-803 (1999). The contents of these patents and publications are incorporated herein by reference in their entirety.
Thousands of gene fragments were initially found to be differentially expressed in rat heart tissue in response to serotonin modulating agents in. Genes fragments whose expression levels were modulated greater than ±1.5-fold were selected for further analysis.
Column 6 of Table 1, entitled “Function”, lists the type of classification assigned for the protein, based on its function. The 210 single nucleic acid sequences identified herein, are referred to herein as CARDIOTOX 1-210.

CCNC(C)Cc1cccc(C(F)(F)F)c1 (centres unmarked) [fenfluramine]
Effects on Transcription Level: Novel gene fragment, 467 bp, 94% SI to mouse gelsolin [J04953] (CARDIOTOX 70): −3.6 fold
Effects on Transcription Level: Novel gene fragment, 535 bp, 90% SI to mouse slow/cardiac troponin C [M29793] (CARDIOTOX 71): −3.7 fold
Effects on Transcription Level: Novel gene fragment, 445 bp, 85% SI to human skeletal muscle alpha 2 actinin [M86406] (CARDIOTOX 72): −2.0 fold
Effects on Transcription Level: Novel gene fragment, 246 bp, 89% SI to mouse ponsin-1 [AF078667] (CARDIOTOX 73): −2.8 fold
Effects on Transcription Level: Novel gene fragment, 126 bp, 77% SI to human DNA sequence from cosmid V311G7, between markers DXS366 and DXS87 on chromosome X [Z69304] (CARDIOTOX 74): +1.9 fold
Effects on Transcription Level: Novel gene fragment, 370 bp (CARDIOTOX 75): −3.0 fold
Effects on Transcription Level: Novel gene fragment, 337 bp, 78% SI to novel human protein AHNAK [M80899] (CARDIOTOX 76): −3.6 fold
Effects on Transcription Level: Novel gene fragment, 100 bp, 93% SI to human KIAA0750 protein [ABO18293] (CARDIOTOX 77): −9.0 fold
Effects on Transcription Level: Novel gene fragment, 44 bp (CARDIOTOX 78): −6.7 fold
Effects on Transcription Level: Novel gene fragment, 698 bp, 93% SI to mouse plenty-of-prolines-101 [AF062655] (CARDIOTOX 79): −2.5 fold
Effects on Transcription Level: Novel gene fragment, 660 bp, 84% SI to mouse membrane protein TMS-2 [AF181685] (CARDIOTOX 80): −3.7 fold
Effects on Transcription Level: Novel gene fragment, 115 bp (CARDIOTOX 81): −6.3 fold
Effects on Transcription Level: Novel gene fragment, 294 bp, 95% SI to mouse Ndr1 related protein Ndr2 [AB033921] (CARDIOTOX 82): −2.0 fold
Effects on Transcription Level: Novel gene fragment, 198 bp (CARDIOTOX 83): +2.7 fold
Effects on Transcription Level: Novel gene fragment, 730 bp, 86% SI to mouse E800 [Y10968] (CARDIOTOX 84): −2.4 fold
Effects on Transcription Level: Novel gene fragment, 294 bp, 98% SI to cysteine conjugate beta-lyase [S61960] (CARDIOTOX 85): −2.4 fold
Effects on Transcription Level: Aconitase (CARDIOTOX 86, GenBank A1243266): −3.4 fold
Effects on Transcription Level: Ribosomal protein L7 (CARDIOTOX 87, GenBank M17422): +2.5 fold
Effects on Transcription Level: Ribosomal protein L9 (CARDIOTOX 88, GenBank X51706): +11.0 fold
Effects on Transcription Level: Ribosomal protein L12 (CARDIOTOX 89, GenBank X53504): −1.5 fold
Effects on Transcription Level: 18S, 5.8S, and 28S ribosomal RNA's (CARDIOTOX 90, GenBank V01270): +6 fold
Effects on Transcription Level: Pyruvate dehydrogenase kinase 2 (PDK2) (CARDIOTOX 91, GenBank U10357): −7.7 fold
Effects on Transcription Level: D-Binding Protein (DBP) (CARDIOTOX 92, GenBank J03179): −1.9 fold
Effects on Transcription Level: Lipoprotein lipase (CARDIOTOX 93, GenBank L03294): −2.3 fold
Effects on Transcription Level: Non-neuronal enolase (CARDIOTOX 94, GenBank X02610): +3.5 fold
Effects on Transcription Level: Glycogen phosphorylase (muscle isozyme) (CARDIOTOX 95, GenBank L10669): −2.3 fold
Effects on Transcription Level: Cytochrome c oxidase subunit IV (CARDIOTOX 96, GenBank X14209): +10.0 fold
Effects on Transcription Level: Alpha-globin (CARDIOTOX 97, GenBank M17083): +3.4 fold
Effects on Transcription Level: Beta-globin (CARDIOTOX 98, GenBank X06701): +3.6 fold
Effects on Transcription Level: Myoglobin (CARDIOTOX 99, GenBank AF197916): +4.0 fold
Effects on Transcription Level: Titin (CARDIOTOX 100, GenBank L38717): −1.6 fold
Effects on Transcription Level: Skeletal muscle actin (CARDIOTOX 101, GenBank V01218): −14.9 fold
Effects on Transcription Level: Myosin light chain 2 (MLC2) (CARDIOTOX 102, GenBank M11851): +2.4 fold
Effects on Transcription Level: Alpha cardiac myosin heavy chain (CARDIOTOX 103, GenBank X15938): −7.5 fold
Effects on Transcription Level: Troponin I (CARDIOTOX 104, GenBank U77354): +1.8 fold
Effects on Transcription Level: Cardiac calsequestrin (CARDIOTOX 105, GenBank AF001334): −2.4 fold
Effects on Transcription Level: Sulfated glycoprotein 2 (CARDIOTOX 106, GenBank M16975): −1.8 fold
Effects on Transcription Level: Aquaporin 7 (CARDIOTOX 107, GenBank AB000507): +1.5 fold
Effects on Transcription Level: Carnitine/acylcarnitine carrier protein (CARDIOTOX 108, GenBank X97831): −2.6 fold
Effects on Transcription Level: Glu-Pro Dipeptide Repeat (CARDIOTOX 109, GenBank U40628): −5.6 fold
Effects on Transcription Level: Cystatin beta (CARDIOTOX 110, GenBank X54737): +2.7 fold
Effects on Transcription Level: Novel gene fragment, 593 bp, 90% SI to human calcineurin B-like protein [Z08983] (CARDIOTOX 111): +2.1 fold
Effects on Transcription Level: Novel gene fragment, 179 bp, 88% SI to human titin [X90568] (CARDIOTOX 112): −3.0 fold
Effects on Transcription Level: Novel gene fragment, 700 bp, 91% SI to mouse periplakin (PPL) [AF116523] (CARDIOTOX 113): +2.0 fold
Effects on Transcription Level: Long chain acyl-CoA dehydrogenase (LCAD) (CARDIOTOX 114, GenBank J05029): +1.8 fold
Effects on Transcription Level: Sulfated glycoprotein 1 (SGP-1) (CARDIOTOX 115, GenBank M19936): −2.0 fold
Effects on Transcription Level: Catalase (CARDIOTOX 116, GenBank M11670): +2.1 fold
Effects on Transcription Level: Alpha-fodrin (A2A) (Nonerythroid spectrin alpha subunit) (CARDIOTOX 117, GenBank AF084186): −1.8 fold
Effects on Transcription Level: Cardiac specific sodium channel alpha-subunit (CARDIOTOX 118, GenBank M27902): −2.1 fold
Effects on Transcription Level: Glu-Pro Dipeptide Repeat (CARDIOTOX 119, GenBank U40628): +4.2 fold
Effects on Transcription Level: Novel gene fragment, 200 bp, 64% SI to human KIAA0733 protein [AB018316] (CARDIOTOX 120): −1.7 fold
Effects on Transcription Level: RNA polymerase II transcription factor SIII (p18 subunit) (CARDIOTOX 121, GenBank L42855): +1.7 fold
Effects on Transcription Level: Protein-tyrosine phosphalase (LRP) (CARDIOTOX 122, GenBank L01702): +2.0 fold
Effects on Transcription Level: Skeletal muscle selenoprotein W (SelW) (CARDIOTOX 123, GenBank U25264): −1.8 fold
Effects on Transcription Level: Sarcoplasmic reticulum 2+-Ca-ATPase (CARDIOTOX 124, GenBank X15635): −1.6 fold
Effects on Transcription Level: Ribosomal protein S7 (CARDIOTOX 125, GenBank X53377): +1.0 fold
Effects on Transcription Level: Ribophorin I (CARDIOTOX 126, GenBank X05300): +1.6 fold
Effects on Transcription Level: Beta cardiac myosin heavy chain (CARDIOTOX 127, GenBank X15939): +2.3 fold
Effects on Transcription Level: ADP-ribosylation factor 1 (CARDIOTOX 128, GenBank L12380): +1.2 fold
Effects on Transcription Level: Laminin receptor (CARDIOTOX 129, GenBank U04942): +2.6 fold
Effects on Transcription Level: Novel gene fragment, 206 bp, 89% SI to human seryl-tRNA synthetase [X91257] (CARDIOTOX 130): +1.8 fold
Effects on Transcription Level: Annexin VI (CARDIOTOX 131, GenBank X86086): −1.8 fold
Effects on Transcription Level: Novel gene fragment, 325 bp, 90% SI to mouse N-RAP [U76618] (CARDIOTOX 132): +1.7 fold
Effects on Transcription Level: Novel gene fragment, 61 bp (CARDIOTOX 134) (LD10 dose for three days): −2.4 fold
Effects on Transcription Level: Novel gene fragment, 337 bp (CARDIOTOX 133) (LD10 dose for three days): −2.4 fold
Effects on Transcription Level: Novel gene fragment, 378 bp, 88% SI to human coatomer protein (COPA) [U24105] (CARDIOTOX 138) (LD10 dose for three days): −1.6 fold
Effects on Transcription Level: Long chain 3-ketoacyl-CoA thiolase (CARDIOTOX 136) (LD10 dose for three days, GenBank D16479): −1.1 fold
Effects on Transcription Level: TATA-binding protein interacting protein 120 (TIP120) (CARDIOTOX 135) (LD10 dose for three days, GenBank D87671): +1.9 fold
Effects on Transcription Level: Serine protease (CARDIOTOX 139) (LD10 dose for three days, GenBank D88250): +4.0 fold
Effects on Transcription Level: Thymosin beta-4 (CARDIOTOX 137) (LD10 dose for three days, GenBank M34043): +1.6 fold
Effects on Transcription Level: Annexin VI (no CARDIOTOX assignment given) (LD10 dose for three days, GenBank X86086): −1.7 fold
